Experimental data from US10596259B2, “Tumor radiosensitization with monomethyl auristatin E (MMAE) and derivatives thereof” (The Regents of the University of California, priority 2015, dated 2020).
Where two headings read alike, the source gives them in different places.

Columns and labels:
Assay in all cases: Alamar Blue cell viability assay
Assay type in all cases: cell-based, Human
[1] = test system: HCT-116 cells; conditions: Homo sapiens, HCT-116, 72 h, read-out: IC50
Procedure: (§1) Alamar Blue (also known as resazurin) was added to the cells and allowed to incubate for 2 hrs at 37° C. Plates were analyzed using a plate reader with fluorescence measured at 560 nm. For irradiated cells, cells were treated with MMAE overnight followed by 6 Gy.
(§2) Alamar Blue (resazurin) was added to the cells and allowed to incubate for 2 hrs at 37° C. Plates were analyzed using a plate reader with fluorescence measured at 560 nm.
(§3) Cells were plated in 96-well plates and exposed to MMAE or paclitaxel for 72 hours and analyzed at 560 nm. For irradiated cells, cells were treated with MMAE overnight followed by 6 Gy.

[2] = test system: PANC-1 cells; conditions: Homo sapiens, PANC-1, 72 h, read-out: IC50
Procedure: as §1, with “Cells were plated in 96 well plates at varying cell densities and exposed to range of concentrations of MMAE or paclitaxel for 72 hrs. Alamar” for “Alamar”
as §3

[3] = test system: 779E cells; conditions: Homo sapiens, 72 h
Procedure: as §1, with “Cells were plated in 96 well plates at varying cell densities and exposed to range of concentrations of MMAE or paclitaxel for 72 hrs. Alamar” for “Alamar”
as §3

[4] = test system: CAL-27 cells; conditions: 72 hours
Procedure: as §2

[5] = test system: SQ-9G cells; conditions: 72 hours
Procedure: as §2

[6] = test system: SCC-61 cells; conditions: 72 hours
Procedure: as §2

[7] = test system: SCC-35 cells; conditions: 72 hours
Procedure: as §2

| SMILES | IC50 ([1]; 72 hours exposure (Example 3)) | IC50 ([1]; 72 hours exposure) | IC50 ([2]; 72 hours exposure (Example 3)) | IC50 ([2]; 72 hours exposure) | IC50 ([3]; 72 hours exposure) | IC50 ([3]; 72 hours exposure (Example 3)) | IC50 [4] | IC50 [5] | IC50 [6] | IC50 [7] |
| --- | --- | --- | --- | --- | --- | --- | --- | --- | --- | --- |
| CC(=O)O[C@H]1C(=O)[C@@]2(C)[C@H]([C@H](OC(=O)c3ccccc3)[C@]3(O)C[C@H](OC(=O)[C@H](O)[C@@H](NC(=O)c4ccccc4)c4ccccc4)C(C)=C1C3(C)C)[C@]1(OC(C)=O)CO[C@@H]1C[C@@H]2O [paclitaxel] | 0.01 µM | 0.01 µM | 0.0151 µM | 0.0151 µM | 0.052 µM | 0.052 µM |  |  |  |  |
| N.N.[Cl][Pt][Cl] [cisplatin] |  |  |  |  |  |  | 5 µM | 13 µM | 10 µM | 30 µM |
